# Columns and labels:
# [1] = in vitro; settings: human
# [2] = system: Poliovirus 3; experiment: microbe, parasite or virus in culture; assay type: cell-based; settings: Enterovirus C, read-out: Poliovirus3 EC50
SMILES,melting point,CC50 ([1]; Picorana CC50),EC50 [2],CC50 [1]
CCOC(=O)N[C@@]12C(=O)c3ccccc3[C@]1(O)Oc1cc(C(C)C)ccc12,115 to 118 °C,–,–,–
"CC(=O)O[C@@]12Oc3cc(C(C)C)ccc3[C@]1(OC(C)=O)C(=O)c1c(NS(C)(=O)=O)cccc12 (stereo in doubt) [Example 54, acetic acid 4b-acetoxy-7-isopropyl-1-methanesulfonylamino-10-oxo-4b,10-dihydro-5-oxa-indeno[2,1-a]inden-9b-yl ester]",96 to 100 °C,> 50 µg/mL,–,–
"Cc1ccc2c(c1)OC1(O)c3ccccc3C(=O)C21O (stereo not drawn) [Example 1, 4b,9b-Dihydroxy-7-methyl-4bH-benzo[d]indeno[1,2-b]furan-10(9bH)-one]",145 to 147 °C,> 50 µg/mL,–,–
"CC(=O)OC12Oc3cc(C)ccc3C1(OC(C)=O)C(=O)c1ccccc12 (stereo not drawn) [Example 2, 7-Methyl-10-oxo-9b,10-dihydro-4bH-benzo[d]indeno[1,2-b]furane-4b,9b-diyl diacetate]",167 to 169 °C,> 50 µg/mL,–,–
"CCOC(=O)Cc1cc(OC)c2c(c1)C1(O)C(=O)c3ccccc3C1(O)O2 (stereo not drawn) [Example 3, Ethyl 2-(4b,9b-dihydroxy-6-methoxy-10-oxo-9b,10-dihydro-4bH-benzo[d]indeno[1,2-b]furane-8-yl)acetate]",133 to 136 °C,> 50 µg/mL,–,–
"Cc1cc2c(cc1C)C1(O)C(=O)c3ccccc3C1(O)O2 (stereo not drawn) [Example 4, 4b,9b-dihydroxy-7,8-dimethyl-4bH-benzo[d]indeno[1,2-b]furan-10(9bH)-one]",198 to 200 °C,> 50 µg/mL,–,–
"COc1ccc2c(c1)OC1(O)c3ccccc3C(=O)C21O (stereo not drawn) [Example 7, 4b,9b-Dihydroxy-7-methoxy-4bH-benzo[d]indeno[1,2-b]furan-10(9bH)-one]",98 to 100 °C,> 50 µg/mL,–,–
"O=C1c2ccccc2C2(O)Oc3c(ccc(Cl)c3Cl)C12O (stereo not drawn) [Example 8, 6,7-Dichloro-4b,9b-dihydroxy-4bH-benzo[d]indeno[1,2-b]furan-10(9bH)-one]",142 to 150 °C,44.1 µg/mL,–,–
"CCc1ccc2c(c1)OC1(O)c3ccccc3C(=O)C21O (stereo not drawn) [Example 9, 7-Ethyl-4b,9b-dihydroxy-4bH-benzo[d]indeno[1,2-b]furan-10(9bH)-one]",168 to 169 °C,18 µg/mL,–,–
"CC(=O)OC12Oc3cc(C(C)C)ccc3C1(OC(C)=O)C(=O)c1ccccc12 (stereo not drawn) [Example 11, 7-Isopropyl-10-oxo-9b,10-dihydro-4bH-benzo[d]indeno[1,2-b]furane-4b,9b-diyl diacetate]",138 to 140 °C,16.2 µg/mL,–,–
"COc1ccc2c(c1)C1(O)C(=O)c3ccccc3C1(O)O2 (stereo not drawn) [Example 12, 4b,9b-Dihydroxy-8-methoxy-4bH-benzo[d]indeno[1,2-b]furan-10(9bH)-one]",186 to 189 °C,> 50 µg/mL,–,–
"O=C1c2ccccc2C2(O)Oc3c(-c4ccccc4)cccc3C12O (stereo not drawn) [Example 13, 4b,9b-Dihydroxy-6-phenyl-4bH-benzo[d]indeno[1,2-b]furan-10(9bH)-one]",182 to 183 °C,8.08 µg/mL,–,–
"O=C1c2ccccc2C2(O)Oc3ccc([N+](=O)[O-])cc3C12O (stereo not drawn) [Example 14, 4b,9b-Dihydroxy-8-nitro-4bH-benzo[d]indeno[1,2-b]furan-10(9bH)-one]",206 to 207 °C,> 50 µg/mL,–,–
"O=C1c2ccccc2C2(O)Oc3cc4ccccc4cc3C12O (stereo not drawn) [Example 15, 4b,11b-Dihydroxy-4bH-indeno[1,2-b]naphtho[2,3-d]furan-12(11 bH)-one]",220 to 221 °C,8.57 µg/mL,–,–
"O=C1c2ccccc2C2(O)Oc3c(ccc4ccccc34)C12O (stereo not drawn) [Example 16, 6b,11b-Dihydroxy-6bH-indeno[1,2-b]naphtho[2,1-d]furan-7(11 bH)-one]",216 to 218 °C,7.82 µg/mL,–,–
"CCCc1ccc2c(c1)C1(O)C(=O)c3ccccc3C1(O)O2 (stereo not drawn) [Example 17, 4b,9b-Dihydroxy-8-propyl-4bH-benzo[d]indeno[1,2-b]furan-10(9bH)-one]",126 to 127 °C,7.85 µg/mL,–,–
"CCc1ccc2c(c1)C1(O)C(=O)c3ccccc3C1(O)O2 (stereo not drawn) [Example 18, 8-Ethyl-4b,9b-dihydroxy-4bH-benzo[d]indeno[1,2-b]furan-10(9bH)-one]",157 to 159 °C,37.5 µg/mL,–,–
"CCC(C)c1ccc2c(c1)C1(O)C(=O)c3ccccc3C1(O)O2 (stereo not drawn) [Example 19, 8-sec-Butyl-4b,9b-dihydroxy-4bH-benzo[d]indeno[1,2-b]furan-10(9bH)-one]",134 to 136 °C,8.34 µg/mL,–,–

SMILES,melting point,CC50 ([1]; Picorana CC50),EC50 [2],CC50 [1]
"CC(C)(C)c1ccc2c(c1)C1(O)C(=O)c3ccccc3C1(O)O2 (stereo not drawn) [Example 20, 8-tert-Butyl-4b,9b-dihydroxy-4bH-benzo[d]indeno[1,2-b]furan-10(9bH)-one]",187 to 188 °C,7.93 µg/mL,–,–
"CC(C)(C)c1cccc2c1OC1(O)c3ccccc3C(=O)C21O (stereo not drawn) [Example 21, 6-tert-Butyl-4b,9b-dihydroxy-4bH-benzo[d]indeno[1,2-b]furan-10(9bH)-one]",148 to 152 °C,32.1 µg/mL,–,–
"Cc1cc2c(c(C)c1C)C1(O)C(=O)c3ccccc3C1(O)O2 (stereo not drawn) [Example 22, 4b,9b-Dihydroxy-7,8,9-trimethyl-4bH-benzo[d]indeno[1,2-b]furan-10(9bH)-one]",212 to 214 °C,8.01 µg/mL,–,–
"CCC(C)(C)c1ccc2c(c1)C1(O)C(=O)c3ccccc3C1(O)O2 (stereo not drawn) [Example 23, 4b,9b-Dihydroxy-8-tert-pentyl-4bH-benzo[d]indeno[1,2-b]furan-10(9bH)-one]",175 to 176 °C,9.3 µg/mL,–,–
"CC(C)(C)c1cc(C(C)(C)C)c2c(c1)C1(O)C(=O)c3ccccc3C1(O)O2 (stereo not drawn) [Example 24, 6,8-di-tert-Butyl-4b,9b-dihydroxy-4bH-benzo[d]indeno[1,2-b]furan-10(9bH)-one]",200 to 203 °C,8.8 µg/mL,–,–
"CC(=O)OC12Oc3c(C(C)(C)C)cc(C(C)(C)C)cc3C1(OC(C)=O)C(=O)c1ccccc12 (stereo not drawn) [Example 25, 6,8-di-tert-Butyl-10-oxo-9b,10-dihydro-4bH-benzo[d]indeno[1,2-b]furane-4b,9b-diyl diacetate]",242 to 247 °C,> 50 µg/mL,–,–
"CCCCCCCCCc1ccc2c(c1)C1(O)C(=O)c3ccccc3C1(O)O2 (stereo not drawn) [Example 26, 4b,9b-Dihydroxy-8-nonyl-4bH-benzo[d]indeno[1,2-b]furan-10(9bH)-one]",108 to 110 °C,< 4 µg/mL,–,–
"CCCCCCCCCCCCCCCc1ccc2c(c1)C1(O)C(=O)c3ccccc3C1(O)O2 (stereo not drawn) [Example 27, 4b,9b-Dihydroxy-8-pentadecyl-4bH-benzo[d]indeno[1,2-b]furan-10(9bH)-one]",105 to 110 °C,43.9 µg/mL,–,–
"CCC(C)(C)c1cc(C(C)(C)CC)c2c(c1)C1(O)C(=O)c3ccccc3C1(O)O2 (stereo not drawn) [Example 28, 6,8-Bis-(1,1-dimethyl-propyl)-4b,9b-dihydroxy-4b,9b-dihydro-5-oxa-indeno[2,1-a]inden-10-one]",195 to 222 °C,9.2 µg/mL,–,–
"CC(C)OC(=O)Nc1cccc2c1C(=O)C1(O)c3ccc(C(C)C)cc3OC21O (stereo not drawn) [Example 29, Isopropyl 4b,9b-dihydroxy-7-isopropyl-10-oxo-9b,10-dihydro-4bH-benzo[d]indeno[1,2-b]furan-1-ylcarbamate]",200 to 202 °C,7.49 µg/mL,–,–
"O=C1c2ccccc2C2(O)Oc3c(ccc4c3CCCC4)C12O (stereo not drawn) [Example 31, 6b,11b-Dihydroxy-1,2,3,4,6b,11b-hexahydro-12-oxa-benzo[4,5]pentaleno[2,1-a]naphthalen-7-one]",252 to 254 °C,8.9 µg/mL,–,–
"COc1ccc2c(c1)C(=O)C1(O)c3ccc(C(C)C)cc3OC21O (stereo not drawn) [Example 32, 4b,9b-Dihydroxy-7-isopropyl-2-methoxy-4b,9b-dihydro-5-oxa-indeno[2,1-a]inden-10-one]",98 to 102 °C,8.1 µg/mL,–,–
"CC(C)c1ccc2c(c1)OC1(OC(=O)C(C)(C)C)c3ccccc3C(=O)C21OC(=O)C(C)(C)C (stereo not drawn) [Example 33, 7-Isopropyl-10-oxo-9b,10-dihydro-4bH-benzo[d]indeno[1,2-b]furan-4b,9b-diyl bis(2,2-dimethylpropanoate)]",153 to 157 °C,> 50 µg/mL,–,–
"CC(C)c1ccc2c(c1)OC1(OC(=O)/C=C/c3ccccc3)c3ccccc3C(=O)C21OC(=O)/C=C/c1ccccc1 (stereo not drawn) [Example 34, (2E,2′E)-7-Isopropyl-10-oxo-9b,10-dihydro-4bH-benzo[d]indeno[1,2-b]furan-4b,9b-diyl bis(3-phenylacrylate)]",111 to 113 °C,> 50 µg/mL,–,–
"C=CC(=O)OC12Oc3cc(C(C)C)ccc3C1(O)C(=O)c1ccccc12 (stereo not drawn) [Example 35, 9b-Hydroxy-7-isopropyl-10-oxo-9b,10-dihydro-4bH-benzo[d]indeno[1,2-b]furan-4b-yl acrylate]",95 to 97 °C,46.7 µg/mL,–,–
"CC(C)c1ccc2c(c1)OC1(OC(=O)c3ccco3)c3ccccc3C(=O)C21O (stereo not drawn) [Example 36, 9b-Hydroxy-7-isopropyl-10-oxo-9b,10-dihydro-4bH-benzo[d]indeno[1,2-b]furan-4b-yl furane-2-carboxylatefurane-2-carboxylic acid]",116 to 120 °C,9.34 µg/mL,–,–
"CCOC(=O)OC12Oc3cc(C(C)C)ccc3C1(OC(=O)OCC)C(=O)c1ccccc12 (stereo not drawn) [Example 37, Diethyl 7-isopropyl-10-oxo-9b,10-dihydro-4bH-benzo[d]indeno[1,2-b]furane-4b,9b-diyl dicarbonate]",150 to 153 °C,9.68 µg/mL,–,–
"CC(C)c1ccc2c(c1)OC1(O)c3cccc(N)c3C(=O)C21NC(=O)c1nc2cc(F)ccc2[nH]1 (stereo not drawn) [Example 291, N-(1-Amino-4b-hydroxy-7-isopropyl-10-oxo-9b,10-dihydro-4bH-indeno[1,2-b]benzofuran-9b-yl)-5-fluoro-1H-benzo[d]imidazole-2-carboxamide]",–,4.43 µg/mL,0.036 µg/mL,4.51 µg/mL

# From patent US9890133B2 (priority 2011, dated 2018)
